Converted amounts (≈) assume the structure as drawn.
Tests used:
[1] = tested on: atrial strip; experiment: Cardiotonic activity, Test 2: contractile force and heart rate of isolated atrial strip; design: species or system Male Hartley strain guinea-pigs; conditions: Cavia porcellus, 0.5 h; 1 × 10^-5 g/ml; 30° C.; observed for 30 min; percentage before and after dosing
Description: Male Hartley strain guinea-pigs, weighing 530-600 g, were killed by bleeding and the heart was removed. An atrial strip was removed and suspended in an organ bath containing 50 ml of Tyrode's solution maintained at 30° C. and aerated with a gas mixture of 95% O2 -5% CO2. The atrium was connected to a strain gauge under an initial tension of 0.4-0.6 g. […] The effect was expressed as percentage values before and after dosing.

[2] = tested on: left ventricular pressure (dp/dt max); experiment: Cardiotonic activity, Test 1: dp/dt max change in anesthetized dogs; type: in vivo, Mongrel dogs; conditions: 1.0 mg/kg, injected into the femoral vein
Description: Mongrel dogs of either sex were anesthetized with sodium pentobarbital, 35 mg/kg, i.p.. The animals were allowed to breathe spontaneously. The left carotid artery was isolated and a catheter (USCI, #8F) filled with heparinized saline was inserted and advanced into the left ventricle. The catheter was connected to a pressure transducer (Nihonkohden, MPU-0.5A) to measure the left ventricular pressure, from which dp/dt max was derived by analog computing. The measure the systemic blood pressure the left femoral artery was cannulated. The blood pressure pulse was used to trigger a heart rate meter. Another catheter was positioned in the vena cave through right femoral vein for injection of drugs. Systemic blood pressure, left ventricular pressure, dp/dt max and heart rate was recorded simultaneously on a polygram (Nihonkohden, RJG-4008).
Test compound was dissolved in distilled water (0.2 ml/kg) or dimethyl sulfoxide (0.04 ml/kg) and injected into the femoral vein. The parameters after dosing were compared with those during the predosing period.
Test results were represented in terms of percentage of dp/dt max changes (dp/dt M.C.) calculated by following formula. [formula]

[3] = tested on: carrageenin foot edema; experiment: Anti-inflammatory activity, Test 5: carrageenin foot edema; type: in vivo, Male Sprague-Dawley rats; conditions: 32 mg/kg oral, 60 minutes before phlogogen; edema volume 3 hours after phlogogen; 1% carrageenin
Description: Male Sprague-Dawley rats weighing about 180 g were used in groups of five. Paw edema was induced by subplantar injection of 1% carrageenin (0.1 ml/rat) into the right hind paw in carrageenin foot edema. The test compound was suspended in methylcellulose and administered orally 60 minutes before halogogen. Paw volume was measured with plethysmometer (Ugo Basil Co., Ltd.) by water displacement immersing the paw to the lateral malleolus. The difference of paw volume before and 3 hours after the phlogogen was designated as edema volume.
The data was analyzed statistically by student's t-test.

[4] = tested on: Platelet aggregation (9,11-azo PGH2); experiment: Anti-platelet activity, Test 4: 9,11-azo PGH2-induced platelet aggregation in platelet rich plasma; type: cell-based, rabbits; conditions: Oryctolagus cuniculus, rabbit PRP, 9,11-azo PGH2 1.0 μM, 37° C.
Description: The blood was collected from the carotid artery of rabbits into plastic vessels containing 0.1 volume of 3.8% sodium citrate. Platelet rich plasma (PRP) was prepared by centrifugation at 150 g for 15 minutes. Platelet aggregation was investigated by using the turbidimetric method with an aggregometer (NKK HEMATRACER 1). To the 225 μl of PRP, 25 μl of test compound solution was added, and then stirred at 1000 rpm for 2 minutes at 37° C. To the solution 5 μl of 9,11-azo PGH2 (final 1.0 μM) was added as an aggregating inducer.

[5] = tested on: Platelet aggregation (collagen); experiment: Anti-platelet activity, Test 3: collagen-induced platelet aggregation in blood after oral administration; type: in vivo, Male Sprague-Dawley rats; conditions: 32 mg/kg oral, blood collected one hour after; collagen 5.0 μg/ml
Description: Male Sprague-Dawley rats weighing about 250 g were used after overnight fasting. One hour after oral administration of test compound or vehicle of test compound (control), blood was collected into a tube containing 0.1 vol. of 3.8% sodium citrate. To the 0.45 ml of blood, 0.05 ml of collagen (final concentration 5.0 μg/ml) was added and then incubated for 5 min. at 37° C. under shaking. The reaction was terminated by addition of 1 ml of 10 mM phosphate buffered saline (pH 7.4) containing 11.5 mM EDTA and 1% formalin. The reaction mixture was centrifuged at 70 xg for 5 min. and platelet count of upper phase was measured by Technicon Auto Analizer.
Platelet aggregation was calculated according to the following formula: [formula] A: Platelet count after addition of vehicle of collagen B: Platelet count after addition of collagen.
Inhibition of the test compound was calculated according to the following formula. [formula] C: Platelet aggregation (%) of control D: Platelet aggregation (%) of Test compound.

With `CCc1[nH]c(-c2ccc(OC)cc2OC)nc1-c1ccncc1` [Compound f, 2-(2,4-Dimethoxyphenyl)-5-ethyl-4-(4-pyridyl)imidazole] the activation at 10 µg/mL [1] was 61.1% and the inhibition at 10 µg/mL [1] was 30.7%.

In the case of `COc1ccc(-c2nc(-c3cccnc3)c(C)[nH]2)c(OC)c1` [Compound a, 2-(2,4-Dimethoxyphenyl)-5-methyl-4-(3-pyridyl)imidazole], the “dp/dt M.C. (percentage of dp/dt max changes)” value [2] is reported as 82%, the activation at 10 µg/mL [1] is reported as 45% and the inhibition at 10 µg/mL [1] is reported as 21.2%.

With `CCc1nc(-c2ccc(OC)cc2OC)[nH]c1-c1cccnc1` [Compound b, 2-(2,4-Dimethoxyphenyl)-4-ethyl-5-(3-pyridyl)imidazole] the “dp/dt M.C. (percentage of dp/dt max changes)” value [2] was 133%.

In the case of `COc1cc(Cl)ccc1-c1nc(-c2cccnc2)c(C)[nH]1` [Compound k, 2-(4-Chloro-2-methoxyphenyl)-5-methyl-4-(3-pyridyl)imidazole], the “Inhibition (paw edema)” value [3] is reported as 72.3% and the IC50 [4] is reported as 0.16 µg/mL (≈ 0.534 µM).

`COc1cc(SC)ccc1-c1nc(-c2cccnc2)c(C)[nH]1` [Compound c, 2-(2-Methoxy-4-methylthiophenyl)-5-methyl-4-(3-pyridyl)imidazole] was tested, and the “dp/dt M.C. (percentage of dp/dt max changes)” value [2] was 167%.

Compound `CCc1[nH]c(-c2ccc(OC)c(OC)c2)nc1-c1ccccn1` [Compound d, 2-(3,4-Dimethoxyphenyl)-5-ethyl-4-(2-pyridyl)imidazole] has an activation at 10 µg/mL [1] of 51.6% and an inhibition at 10 µg/mL [1] of 14.1%.

In the case of `CC(=O)Nc1ccccc1-c1nc(C)c(-c2cccnc2)[nH]1` [Compound j, 2-(2-Acetamidophenyl)-4-methyl-5-(3-pyridyl)imidazole], the “Inhibition (platelet aggregation)” value [5] is reported as 91.3% and the IC50 [4] is reported as 0.39 µg/mL (≈ 1.33 µM).

With `Cc1nc(-c2ccccc2F)[nH]c1-c1cccnc1` [Compound i, 2-(2-Fluorophenyl)-4-methyl-5-(3-pyridyl)imidazole] the “Inhibition (platelet aggregation)” value [5] was 100% and the IC50 [4] was 0.11 µg/mL (≈ 0.434 µM).

In the case of `COc1cc(NC(C)=O)c(Cl)cc1-c1nc(-c2cccnc2)c(C)[nH]1` [Compound g, 2-(4-Acetamido-5-chloro-2-methoxyphenyl)-5-methyl-4-(3-pyridyl)imidazole], the “Inhibition (platelet aggregation)” value [5] is reported as 87.6%.

For `COc1ccccc1-c1nc(-c2cccnc2)c(C)[nH]1` [Compound h, 2-(2-Methoxyphenyl)-5-methyl-4-(3-pyridyl)imidazole], the “Inhibition (paw edema)” value [3] was 62.7%.

`COc1ccc(-c2nc(-c3ccncc3)c(C)[nH]2)c(OC)c1` [Compound e, 2-(2,4-Dimethoxyphenyl)-5-methyl-4-(4-pyridyl)imidazole] showed an activation at 10 µg/mL [1] of 58% and an inhibition at 10 µg/mL [1] of 26.8%.

Source: US4822805A, “Pyridyl-imidazole compounds which have useful pharmaceutical activity” (Fujisawa Pharmaceutical Co., Ltd., priority 1986, dated 1989)
